Test results taken from US20060270648A1, “USE OF POLYAMINES WITH ANTIBIOTICS” (priority 2005, published 2006).
≈ marks a conversion by molar mass, not a printed value. Read-outs that look alike come from different tables or passages of the source.

Key:
[1] = tested on: methicillin resistant Staphylococcus aureus (MRSA) Mu50; experiment: MIC of antibiotics against MRSA Mu50 with or without spermine; type: cell-based; conditions: for MICs in the presence or absence of spermine (1 mM): Spermine: with 1 mM spermine
[2] = tested on: MRSA Staphylococcus aureus 700699; experiment: MIC of antibiotics against MRSA Staphylococcus aureus 700699 with or without spermine; type: cell-based
E. coli K10 = experiment: MIC of carbenicillin against E. coli K10 with divalent ions or salt and polyamines; type: cell-based; conditions: Escherichia coli, read-out: MICs to carbenicillin
Experimental: (§1) Various strains of bacteria, including P. aeruginosa and e. coli were grown on Luria-Bertani (LB) agar/broth or Mueller-Hinton (MH) agar/broth. […] The antibiotics, chemicals, and/or polyamines were dissolved in double distilled water or solvent and thereafter filtered through a 0.4 μm disposable membranes.
(§2) The MIC values of the strains associated with various combinations of polyamines and antibiotics were determined using standard two-fold agar dilutions techniques and broth dilutions techniques in Mueller-Hinton broth. The lowest concentration of drug with no visible turbidity was deemed the MIC.

P. aeruginosa PAO1 [3] = experiment: Time killing assay of P. aeruginosa PAO1 in human serum (FIG. 4); type: cell-based
Experimental: Time-killing assays were performed for various bacteria samples. Briefly, the tested bacteria were grown to mid-log phase in Mueller-Hinton broth media. […] As a control group, cells were diluted in a sodium phosphate without any additional compounds. Aliquots were withdrawn at specific time intervals and spread on LB agar plates and incubated overnight at 37 C. The percent of colonies that survived were determined relative to the control.

[4] = tested on: E. coli (K10, K12, C921-61); experiment: MIC of antibiotics against E. coli strains with or without polyamines (FIG. 3); type: cell-based; conditions: E. coli K10, K12, C921-61 and S. typhimurium LT2
Experimental: as §1, §2

[5] = tested on: Salmonella typhimurium LT2; conditions: for MICs in the indicated concentrations (mM) of polyamines: Spermine (1 mM): with 1 mM spermine; for MICs in the indicated concentrations (mM) of polyamines: Spermidine (20 mM): with 20 mM spermidine;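 for all read-outs here: Two-fold agar or broth dilution in Mueller-Hinton broth, MIC taken as lowest drug concentration without visible turbidity, tested alone or combined with polyamines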
Experimental: as §1, §2

[6] = tested on: Salmonella typhimurium LT2; experiment: microbe, parasite or virus in culture; conditions: Salmonella enterica, read-out: MICs in the indicated concentrations (mM) of polyamines: No add;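 note: Two-fold agar or broth dilution in Mueller-Hinton broth, MIC taken as lowest drug concentration without visible turbidity, tested alone or combined with polyamines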
Experimental: as §1, §2

[7] = tested on: outer membrane permeability; experiment: Outer membrane permeabilization assay (β-lactamase activity in whole cells or released into suspension); type: cell-based; conditions: for β-lactamase activity detected: 20 mM (FIG. 7)
Experimental: The β-lactamase activity was determined by a spectrophotometric method using nitrocefin as a substrate. After the β-lactamase was extracted from the cells, the β-lactamase activity was monitored by absorbance changes in wavelength at 486 nm with a molar extinction coefficient of 20500. The extent of hydrolysis was a reflection of the amount of enzyme remaining uninhibited.
An outer membrane permeabilization assay was performed by examining the release of the chromosomally encoded β-lactamase. Briefly, stationary phase cells were diluted 1:59 into 20 mL pre-warmed MMP broth and cultured in an incubator at 350 rpm and at 37 C for 5 hours. After carbenicillin (200 μg/mL) was added to induce β-lactamase activity, the culture was incubated for additional 5 hours. The cells were harvested by centrifugation at 5,000×g for 10 minutes and washed once with 0.05M sodium phosphate buffer at pH 7.2. The cell pellet was resuspended in 5 mL of the same buffer and divided into 1 mL aliquots. […] […] The reaction mixtures were incubated at room temperature for 5 minutes and immediately centrifuged at full speed (15000×g) for 20 minutes and the supernatant was used for β-lactamase sources. β-lactamase activity was determined as described above using 300 μL of the supernatant.

P. aeruginosa PAO1 [8] = experiment: MIC of antibiotics against P. aeruginosa PAO1 with or without polyamines; type: cell-based; conditions: for MIC values in the presence versus the absence of polyamines: hydrophobic antibiotics (FIG. 1)
Experimental: as §1, §2

CC1(C)S[C@@H]2[C@H](NC(=O)C(C(=O)O)c3ccccc3)C(=O)N2[C@H]1C(=O)O (some centres unmarked) [Carbenicillin]
MIC ([1]; Staphylococcus aureus, MRSA, no spermine, read-out: MICs in the presence or absence of spermine (1 mM): No add): 256 µg/mL
MICs in the presence or absence of spermine (1 mM): Spermine [1]: 4 µg/mL
MIC ([2]; Staphylococcus aureus, MRSA, no spermine, read-out: MICs in the absence or presence of spermine: No add): 256 µg/mL
MICs in the absence or presence of spermine: Spermine (1 mM) ([2]; with 1 mM spermine): 4 µg/mL
MIC (E. coli K10; K10, MHB + 1 mM CaCl2, Spermidine (10 mM)): 2 µg/mL
MIC (E. coli K10; K10, MHB + 1 mM CaCl2, Spermine (1 mM)): 1 µg/mL
MIC (E. coli K10; K10, MHB + 1 mM CaCl2, no polyamine): 16 µg/mL
MIC (E. coli K10; K10, MHB + 1 mM MgSO4, Spermidine (10 mM)): 4 µg/mL
MIC (E. coli K10; K10, MHB + 1 mM MgSO4, Spermine (1 mM)): 1 µg/mL
MIC (E. coli K10; K10, MHB + 1 mM MgSO4, no polyamine): 16 µg/mL
MIC (E. coli K10; K10, MHB + 3 mM CaCl2, Spermidine (10 mM)): 4 µg/mL
MIC (E. coli K10; K10, MHB + 3 mM CaCl2, Spermine (1 mM)): 4 µg/mL
MIC (E. coli K10; K10, MHB + 3 mM CaCl2, no polyamine): 16 µg/mL
MIC (E. coli K10; K10, MHB + 3 mM MgSO4, Spermidine (10 mM)): 4 µg/mL
MIC (E. coli K10; K10, MHB + 3 mM MgSO4, Spermine (1 mM)): 4 µg/mL
MIC (E. coli K10; K10, MHB + 3 mM MgSO4, no polyamine): 16 µg/mL
MIC (E. coli K10; K10, MHB + 100 mM NaCl, Spermidine (10 mM)): 4 µg/mL
MIC (E. coli K10; K10, MHB + 100 mM NaCl, Spermine (1 mM)): 4 µg/mL
MIC (E. coli K10; K10, MHB + 100 mM NaCl, no polyamine): 16 µg/mL
MIC (E. coli K10; K10, MHB + 150 mM NaCl, Spermidine (10 mM)): 4 µg/mL
MIC (E. coli K10; K10, MHB + 150 mM NaCl, Spermine (1 mM)): 4 µg/mL
MIC (E. coli K10; K10, MHB + 150 mM NaCl, no polyamine): 16 µg/mL
MIC (E. coli K10; K10, MHB medium, no supplement, Spermidine (10 mM)): 4 µg/mL
MIC (E. coli K10; K10, MHB medium, no supplement, Spermine (1 mM)): 1 µg/mL
MIC (E. coli K10; K10, MHB medium, no supplement, no polyamine): 16 µg/mL
growth of P. aeruginosa PAO1 in human serum (P. aeruginosa PAO1 [3]; 16 μg/mL carbenicillin alone): initial inhibition, this inhibition was followed by a full recovery of growth
percent of the inoculants killed in human serum (P. aeruginosa PAO1 [3]; 2 mM spermine added along with 16 μg/mL carbenicillin, 24 hours): more than 99%
susceptibility with the combination of polyamines and antibiotics [4]: improved susceptibility
MICs in the indicated concentrations (mM) of polyamines: Spermine (1 mM) [5]: 1 µg/mL
MICs in the indicated concentrations (mM) of polyamines: Spermidine (20 mM) [5]: 2 µg/mL
MIC [6]: 8 µg/mL (≈ 21.1 µM)

O=C(O)CN(CCN(CC(=O)O)CC(=O)O)CC(=O)O [EDTA]
release of periplasmic β-lactamase into the suspension solution ([7]; 0.5 mM (FIG. 6)): can be detected
release of periplasmic β-lactamase into the suspension solution ([7]; 1 mM (FIG. 6)): increased

CC[C@H]1OC(=O)[C@H](C)[C@@H](O[C@H]2C[C@@](C)(OC)[C@@H](O)[C@H](C)O2)[C@H](C)[C@@H](O[C@@H]2O[C@H](C)C[C@H](N(C)C)[C@H]2O)[C@](C)(O)C[C@@H](C)C(=O)[C@H](C)[C@@H](O)[C@]1(C)O [Erythromycin]
MIC values in the presence versus the absence of polyamines (P. aeruginosa PAO1 [8]): identical
susceptibility with the combination of polyamines and antibiotics [4]: improved susceptibility
MICs in the indicated concentrations (mM) of polyamines: Spermine (1 mM) [5]: 32 µg/mL
MICs in the indicated concentrations (mM) of polyamines: Spermidine (20 mM) [5]: 64 µg/mL
MIC [6]: 64 µg/mL (≈ 87.2 µM)

CC(=O)O[C@H]1C[C@@]2(C)[C@@H](C[C@@H](O)[C@H]3[C@@]4(C)CC[C@@H](O)[C@@H](C)[C@@H]4CC[C@@]32C)/C1=C(\CCC=C(C)C)C(=O)O [Fusidic acid]
MIC values in the presence versus the absence of polyamines (P. aeruginosa PAO1 [8]): identical
susceptibility with the combination of polyamines and antibiotics [4]: improved susceptibility
MICs in the indicated concentrations (mM) of polyamines: Spermine (1 mM) [5]: 1024 µg/mL
MICs in the indicated concentrations (mM) of polyamines: Spermidine (20 mM) [5]: 1024 µg/mL
MIC [6]: > 1020 µg/mL

CO[C@@H]1[C@@H](OC(N)=O)[C@@H](O)[C@H](Oc2ccc3c(O)c(NC(=O)c4ccc(O)c(CC=C(C)C)c4)c(=O)oc3c2C)OC1(C)C [Novobiocin]
MIC values in the presence versus the absence of polyamines (P. aeruginosa PAO1 [8]): identical
susceptibility with the combination of polyamines and antibiotics [4]: improved susceptibility
MICs in the indicated concentrations (mM) of polyamines: Spermine (1 mM) [5]: 1024 µg/mL
MICs in the indicated concentrations (mM) of polyamines: Spermidine (20 mM) [5]: 256 µg/mL
MIC [6]: > 1020 µg/mL

NCCCCNCCCN [Spermidine]
MICs to carbenicillin in the indicated concentration of polyamines (P. aeruginosa PAO1 [8]; 0 mM polyamine): 64 µg/mL
MICs to carbenicillin in the indicated concentration of polyamines (P. aeruginosa PAO1 [8]; 0.5 mM polyamine): 32 µg/mL
MICs to carbenicillin in the indicated concentration of polyamines (P. aeruginosa PAO1 [8]; 1 mM polyamine): 16 µg/mL
MICs to carbenicillin in the indicated concentration of polyamines (P. aeruginosa PAO1 [8]; 5 mM polyamine): 16 µg/mL
MICs to carbenicillin in the indicated concentration of polyamines (P. aeruginosa PAO1 [8]; 10 mM polyamine): 8 µg/mL
MICs to carbenicillin in the indicated concentration of polyamines (P. aeruginosa PAO1 [8]; 20 mM polyamine): 4 µg/mL
β-lactamase activity detected [7]: only a very low level

NCCCNCCCCNCCCN [Spermine]
MICs to carbenicillin in the indicated concentration of polyamines (P. aeruginosa PAO1 [8]; 0 mM polyamine): 64 µg/mL
MICs to carbenicillin in the indicated concentration of polyamines (P. aeruginosa PAO1 [8]; 0.5 mM polyamine): 16 µg/mL
MICs to carbenicillin in the indicated concentration of polyamines (P. aeruginosa PAO1 [8]; 1 mM polyamine): 4 µg/mL
MICs to carbenicillin in the indicated concentration of polyamines (P. aeruginosa PAO1 [8]; 5 mM polyamine): 4 µg/mL
MICs to carbenicillin in the indicated concentration of polyamines (P. aeruginosa PAO1 [8]; 10 mM polyamine): 4 µg/mL
MICs to carbenicillin in the indicated concentration of polyamines (P. aeruginosa PAO1 [8]; 20 mM polyamine): 4 µg/mL
growth of P. aeruginosa PAO1 in human serum (P. aeruginosa PAO1 [3]; presence or absence of 2 mM spermine): not affected
β-lactamase activity detected [7]: only a very low level

Polymyxin B
MICs in the presence or absence of spermine (1 mM): Spermine [1]: 64 µg/mL
β-lactamase activities detected in the whole cells ([7]; 100 μg/mL applied to the cell suspension (FIG. 5)): significant activities
